Experiments:
[1] = LD50 of DACH-Pt(II) compounds, intraperitoneal; format: in vivo; settings: i.p., CD1 albino mice
[2] = tested on: wild-type L1210 leukemic cells; assay: In vitro cytotoxicity, growth inhibition of wild-type L1210 leukemic cells; format: cell-based, murine; settings: 72 hours incubation
Procedure: Wild-type L1210 leukemic cells were grown as a suspension culture in McCoy's 5A medium supplemented with 10% horse serum, glutamine, streptomycin and penicillin at 37° C., 95% relative humidity and 5% CO2. Four ml of cell suspension (10^5 cells/ml) were added to culture tubes and the appropriate amount of drug was added (to yield 0.01, 0.1, 1 or 10 μg/ml final concentration) to the culture tubes. After 72 hours of incubation, the cell concentration in control and experimental cultures were determined with the aid of the Coulter counter model ZBf and the percent of growth inhibition calculated.

[3] = In vivo renal and hematological toxicity of DACH-Pt(II) compounds; design: species or system CD1 albino mice; WBC d.5: unit not given here; settings: single i.p. LD50 dose; for Body Weight d.5 (% of day 0) / WBC d.5: day 5; for WBC d.5: mean ± S.D.
Procedure: CD1 albino mice were administered a single intraperitoneal injection of the LD50 dose of each compound using 5 mice in each group. Five days later each mouse was bled under anesthesia from the axillary vessel. Blood urea nitrogen (BUN) and leucopenia were assessed for each sample.
^a CD1 Albino mice were administered a single i.p. injection of
the LD50 dose of each compound (5 mice/cmpd) and bled under
anesthesia from the axillary vessel 5 days later for blood urea nitrogen
(BUN) measurement and assessment of leucopenia. Results as presented as […]

B16 melanoma = assay: In vivo antitumor efficacy, B16 melanoma; design: species or system BDF1 mice; settings: for % T/C (mean survival time treated/control x 100): mice inoculated with B16 cells (Table 6); for % T/C: days 1, 5, 9
Procedure: (§1) BDF1 mice were inoculated intraperitoneally with 10^5 L121O cells, 0.5 ml of 10% tumor brei or 10^6 M5076 cells using 5 animals in each group. Drug was administered […] on days 1, 5 and 9, except that the group infected with M5076 cells was also injected on day 13. % T/C represents mean survival time treated/mean survival time of the control times 100.
(§2) ^d % T/C = (Mean Survival Time treated/Mean Survival Time control)
(§3) ^e LTS animals alive 60 days after inoculation of L1210/0 and B16 and […]

L1210 = assay: In vivo antitumor therapy against L1210; design: species or system BDF1 mice; settings: days 1-9; for % T/C: optimal dose 12.5 mg/kg i.p.
L1210/cisplatin = assay: In vivo antitumor efficacy, L1210/cisplatin; design: species or system BDF1 mice; settings: for % T/C (mean survival time treated/control × 100): mice inoculated with L1210 cells (Table 6); for % T/C: days 1, 5, 9
Procedure: as §1
^a BDF1 mice were inoculated i.p. with 10^5 L1210 cells. Mic
received 3 i.p. drug injections days 1, 5, and 9.
as §2, §3

M5076 = assay: In vivo antitumor efficacy, M5076; design: species or system BDF1 mice; settings: for % T/C (treated/control mean survival time): mice inoculated with M5076 cells (Table 6); for % T/C: days 1, 5, 9, 13; for LTS: alive 90 days after inoculation
Procedure: as §1
^c BDF1 mice were inoculated i.p. with 10^6 M5076 cells. Mic
received 4 i.p. drug injections on days 1, 5, 9 and 13.
as §2
^e LTS animals alive 60 days after inoculation of L1210/0 and B16 and
90 days after inoculation B5076.

1,1-Cyclobutanedicarboxylato(cis-DACH)Pt(II).11/2H2 O [Compound 13]
LD50 [1]: 215 mg/kg
ID50 [2]: 3.30 µg/mL
Survivors on d.5 [3]: 5/5
Body Weight d.5 (% of day 0) [3]: 82 % of day 0
WBC d.5 [3]: 1.13 ± 0.28
long term survivor (B16 melanoma; B16 inoculation (Table 6)): 1/5
% T/C (mean survival time treated/control x 100) (B16 melanoma): 200%
% T/C (B16 melanoma; opt. dose 100 mg/kg i.p.): 200%
LTS (B16 melanoma; opt. dose 100 mg/kg i.p., alive 60 days after inoculation): 1/5
Long-term Survivors (L1210; 12.5 mg/kg i.p., alive 30 days after tumor inoculation): 1/6
% T/C (L1210): 253%
% T/C (mean survival time treated/control × 100) (L1210/cisplatin): 150%
% T/C (L1210/cisplatin; opt. dose 150 mg/kg i.p.): 150%
long term survivor (M5076; M5076 inoculation (Table 6)): 5/5
% T/C (treated/control mean survival time) (M5076): 400%
% T/C (M5076; opt. dose 100 mg/kg i.p.): 400%
LTS (M5076; opt. dose 100 mg/kg i.p.): 5/5

N[C@H]1CCCC[C@@H]1N.O.O.O=C([O-])C1(C(=O)[O-])CCC1.[Pt+2] (stereo in doubt) [Compound 12, 1,1-Cyclobutanedicarboxylato(trans-S,S-DACH)Pt(II).2H2 O]
LD50 [1]: 230 mg/kg
ID50 [2]: 1.65 µg/mL
Survivors on d.5 [3]: 3/5
Body Weight d.5 (% of day 0) [3]: 114 % of day 0
WBC d.5 [3]: 3.42 ± 1.93
% T/C (mean survival time treated/control x 100) (B16 melanoma): 104%
% T/C (B16 melanoma; opt. dose 50 mg/kg i.p.): 104%
% T/C (L1210): 120%
% T/C (mean survival time treated/control × 100) (L1210/cisplatin): 176%
% T/C (L1210/cisplatin; opt. dose 100 mg/kg i.p.): 176%
% T/C (treated/control mean survival time) (M5076): 231%
% T/C (M5076; opt. dose 50 mg/kg i.p.): 231%
LTS (M5076; opt. dose 50 mg/kg i.p.): 1/5

Source: patent US5132323A, “1,2-diaminocyclohexane-platinum complexes with antitumor activity” (Board of Regents, The University of Texas System, priority 1990, dated 1992)
